The values that follow come from US11371055B2, “Herbicide resistance genes” (CORTEVA AGRISCIENCE LLC, priority 2005, dated 2022).

The target of this test is T1, AAD-12 (v2) (Delftia acidovorans, UniProt P83309).
T1 construct: made in house; host or cells: Pseudomonas fluorescens strain MB324 (construct pDAB739)
The experiment in a line: Colorimetric phenol detection assay of AAD-12 activity. To be noted: for activity of AAD-12 (v2) on substrate (absorbance at 510 nm, FIG. 3): 4.4 μg AAD-12 (v2), 5 minutes. The format is biochemical. The protocol: Enzyme activity was measured by colorimetric detection of the product phenol using a protocol modified from that of Fukumori and Hausinger (1993) (J. Biol. Chem. 268: 24311-24317) to enable deployment in a 96-well microplate format. The colorimetric assay has been described for use in measuring the activity of dioxygenases cleaving 2,4-D and dichlorprop to release the product 2,4-dichlorophenol. The color yield from several phenols was compared to that of 2,4-dichlorophenol using the detection method previously described to ascertain which phenol products could be readily detected. […] Pyridinols derived from fluroxypyr and triclopyr produced no significant color. The color yield of 2,4-dichlorophenol was linear and proportional to the concentration of phenol in the assay up to ˜500 μM.
Assays were initiated by addition of the aryloxyalkanoate substrate, enzyme or α-ketoglutarate at time zero. After 5 minutes of incubation at 25° C., the reaction was terminated by addition of 30 μl of a 1:1:1 mix of 50 mM Na EDTA; pH 10 buffer (3.09 g boric acid+3.73 g KCl+44 ml 1 N KOH) and 0.2% 4-aminoantipyrine. Then 10 μl 0.8% potassium ferricyanide was added and after 5 or 10 min, the absorbance at 510 nm was recorded in a spectrophotometric microplate reader. Blanks contained all reagents except for enzyme to account for the occasional slight contamination of some of the substrates by small amounts of phenols.
The results are shown in FIG. 3, which illustrates activity of AAD-12 (v2) on 2,4-D and enantiomers of dichlorprop. 4.4 μg AAD-12 (v2) was incubated with 0.5 mM substrate (1 mM for (R,S)-dichlorprop) and the reaction initiated by addition of α-ketoglutarate. After 5 minutes, the reaction was quenched, and the absorbance at 510 nm determined after addition of colorimetric detection reagents. The background value without enzyme was subtracted.

T1 sequence (P83309 whole entry, looked up, natural form): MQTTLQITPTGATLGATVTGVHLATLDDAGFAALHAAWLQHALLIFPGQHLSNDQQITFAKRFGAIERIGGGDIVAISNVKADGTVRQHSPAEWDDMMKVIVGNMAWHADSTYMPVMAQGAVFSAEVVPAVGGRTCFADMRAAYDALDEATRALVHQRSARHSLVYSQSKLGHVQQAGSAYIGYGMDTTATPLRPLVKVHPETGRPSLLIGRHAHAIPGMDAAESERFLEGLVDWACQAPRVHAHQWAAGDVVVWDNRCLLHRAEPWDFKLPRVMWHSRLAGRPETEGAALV

A word on the Km: it is the concentration of substrate that gives half-maximal velocity. `CC(Oc1ccc(Cl)cc1Cl)C(=O)O` (racemic) [(R,S)-dichlorprop]: under “1 mM substrate”, the “activity of AAD-12 (v2) on substrate (absorbance at 510 nm, FIG. 3)” value is “excellent activity”. Further, under “Phenol detection”, the “Substrate inhibition at 2 mM” value came out at 55% and the “kcat, min^−1 (±SE)” value was 63.4 (±0.5) min^−1. Besides, the Km (Phenol detection, for (R,S)-dichlorprop calculated assuming 50% of the racemic mixture was available as a substrate, read-out: Km, μM (±SE)) is 122 µM.

Take `C[C@H](Oc1ccc(Cl)cc1Cl)C(=O)O` [(S)-dichlorprop]: for the setting “0.5 mM substrate”, the “activity of AAD-12 (v2) on substrate (absorbance at 510 nm, FIG. 3)” value was “excellent activity”.
